Several values for one entry are separate records, joined by “and”; a condition that tells them apart may be missing. Identical values can stand only once. Like-named read-outs stand apart in the source and are kept apart here.
How the values were obtained:
in vitro = details: human, Caco-2
mouse hepatocytes = assay: Hepatocyte stability; format: in vitro ADME; details: well-stirred model
[1] = Systemic clearance and pharmacokinetics after i.v. dose in C57BL/6 mice aging 2 months; format: in vivo, mouse; details: male, iv; for clearance / AUC(0-inf) / half-life / MRT inf / Vd: C57BL/6, mouse, plasma; for clearance: read-out: Cl p (converted); for MRT inf: read-out: MRT 0-∞; for Vd: read-out: Vd ss; for CL renal: mouse, urine and plasma, C57BL/6 mice, urine 0–24 h, read-out: Total Cl renal (converted)
Description: (§1) Male C57BL/6 and Bile duct-cannulated (BDC) mice (2 months, weighting: 25–30 g) obtained from Charles River, Inc. (Raleigh, NC) were used to study systemic clearance mechanism, in line with in vitro commercial samples from adolescent animals. Mice were fasted overnight and throughout the duration of the study ([…]), whereas access to water was provided ad libitum. SLOH and SLM were administered i.v. in PBS containing 5% DMSO via the tail vein (n = 5) at different dosages in a dosing volume of 5 mL/kg. Serial blood samples were collected before dosing and at 0.083, 0.167, 0.25, 0.5, 1, 2, 4, 8, 12 and 24 hours after dosing. Urine samples (0–12 and 12–24 hours; pooled 0–24 hours) were also collected after i.v. administration (1 mg/kg). Bile samples were collected at intervals of 0–4, 4–8 and 8–24 hours (pooled 0–24 hours) after dosing (1 mg/kg) to BDC mice.
(§2) Parameters in animals were determined using non-compartmental analysis. […] Systemic Cl p was calculated as the i.v. dose divided by AUC0−∞ ^iv. The terminal rate constant (K el) was calculated by a linear regression of the log-linear concentration-time curve, and the terminal elimination t 1/2 was calculated as 0.693 divided by K el. Mean residence time from t = 0 to infinity (MRT 0−∞) was calculated as AUMC 0−∞ divided by AUC 0−∞. Apparent steady-state distribution volume (Vd ss) was determined as Cl p multiplied by MRT 0−∞. […] The Cl bile was derived as the amount of (in milligrams) of SLM or SLOH in the bile over the 24-hour interval postdose/AUC0-24h. The influx clearance into brain (K in) was calculated by using the amount of drug in the brain (homogenate) at time t (A, brain (t)) (corrected for the amount of drug remaining in the cerebral vasculature) divided by plasma exposure up to this time point (AUC, plasma (0 − t)). The C u,brain was calculated by A brain (homogenate, ng/g brain) divided by V u,brain (mL/g brain). The unbound ISF to plasma ratio (K puu,brain) was calculated by unbound AUC 0−t of ISF (ng/mL × min) divided by unbound AUC 0–t (ng/mL × min) of plasma.

C57BL/6 mice = assay: as above; format: in vivo, mouse; details: for Cl u, renal/GFR Ratio: GFR in mice 0.6 L/h per Kg; for dose dependence of kinetics: i.v. 0.2 mg/kg to 4 mg/kg in mice; for biliary clearance share of plasma clearance / remaining / hepatic clearance share of plasma clearance (Clhep/Clp) / renal clearance share of plasma clearance: mice; for Liver first pass elimination: mouse, in vivo; for Cl u, renal: total Cl renal normalised with unbound free fraction in blood
Description: as §1, §2

Aβ(1–40) = test system: Aβ(1–40); set-up: method as in PMID 22086555; details: cited from earlier work
Aβ = test system: Aβ; set-up: method as in PMID 22086555; details: cited from earlier work
[2] = Blood cell partitioning (blood to plasma ratio); format: in vitro ADME; details: fresh whole blood, 37 °C
Description: The blood to plasma ratio was determined using the method shown in supplemental information (Supplemental Methods). […] The blood cell partitioning was calculated as follows. […] Plasma, liver microsomes and hepatocyte binding by RED device The stability of the compounds in plasma, liver microsomes and hepatocyte were studied to ensure the reliability of the binding data. Hepatocyte was deactivated by leaving them on a bench for 2 days and going through a freeze thaw cycle thereafter.

P-gp = P-gp (Homo sapiens, UniProt P08183); assay: Efflux transporter identification in Caco-2 cell with P-gp specific inhibitors; details: efflux ratio reduced by PSC833 and verapamil, concentration-dependent
Chain of P-gp (P08183 whole entry): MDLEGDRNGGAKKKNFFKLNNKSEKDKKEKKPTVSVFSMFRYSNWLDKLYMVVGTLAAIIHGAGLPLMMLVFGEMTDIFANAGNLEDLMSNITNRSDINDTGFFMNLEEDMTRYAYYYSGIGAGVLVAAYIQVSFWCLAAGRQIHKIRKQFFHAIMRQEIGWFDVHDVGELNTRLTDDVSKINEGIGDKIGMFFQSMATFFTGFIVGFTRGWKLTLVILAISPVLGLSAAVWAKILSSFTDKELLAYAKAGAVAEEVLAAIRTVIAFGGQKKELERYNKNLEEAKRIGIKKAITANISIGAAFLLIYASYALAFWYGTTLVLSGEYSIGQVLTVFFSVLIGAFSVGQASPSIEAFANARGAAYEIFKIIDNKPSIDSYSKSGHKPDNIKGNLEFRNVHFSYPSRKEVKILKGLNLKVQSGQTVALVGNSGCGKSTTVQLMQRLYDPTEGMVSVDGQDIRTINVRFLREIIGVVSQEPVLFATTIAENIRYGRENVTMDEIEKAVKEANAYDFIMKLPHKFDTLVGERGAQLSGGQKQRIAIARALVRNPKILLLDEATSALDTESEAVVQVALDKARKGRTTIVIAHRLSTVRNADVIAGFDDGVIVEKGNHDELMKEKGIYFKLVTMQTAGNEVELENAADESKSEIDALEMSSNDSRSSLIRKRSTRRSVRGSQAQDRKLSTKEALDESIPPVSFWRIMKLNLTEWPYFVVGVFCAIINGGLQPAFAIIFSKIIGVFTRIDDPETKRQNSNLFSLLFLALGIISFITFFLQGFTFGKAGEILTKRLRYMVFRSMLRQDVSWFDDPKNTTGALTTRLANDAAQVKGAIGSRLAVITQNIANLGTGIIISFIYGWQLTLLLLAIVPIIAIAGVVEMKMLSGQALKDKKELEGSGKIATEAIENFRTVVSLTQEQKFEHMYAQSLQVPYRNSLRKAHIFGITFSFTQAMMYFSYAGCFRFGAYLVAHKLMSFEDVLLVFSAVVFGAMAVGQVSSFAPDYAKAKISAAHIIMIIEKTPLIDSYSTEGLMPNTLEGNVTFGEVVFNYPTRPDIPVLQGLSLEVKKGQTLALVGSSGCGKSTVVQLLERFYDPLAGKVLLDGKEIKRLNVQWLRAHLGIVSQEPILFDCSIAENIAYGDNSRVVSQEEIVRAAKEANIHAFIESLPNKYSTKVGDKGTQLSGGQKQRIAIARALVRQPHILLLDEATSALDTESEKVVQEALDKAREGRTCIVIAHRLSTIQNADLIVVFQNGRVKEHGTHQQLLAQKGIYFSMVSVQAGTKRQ

[3] = Plasma binding by RED device; format: in vitro ADME, mouse; details: for plasma binding: mice; for f u,plasma %: mouse plasma, RED device, 4 h, 37 °C; for all read-outs here: tested at 0.4 µM
Description: (§3) Nonspecific binding in plasma (f u, plasma), microsomes (f u, mic) and hepatocyte (f u, hep) were determined using the method seen in supplemental information (Supplemental Methods). […]
(§4) All validation compounds were incubated at 37 °C over 4 h, and in triplicate. For […]
(§5) plasma stability, 10 mM DMSO solutions of SLM and SLOH were diluted to 40 µM (10% DMSO). Plasma […]
(§6) shaking water bath (60 oscillations/min approx.). The assay was started by addition of 6 µL aliquots to […]
(§7) the plasma (final DMSO incubation concentration 0.1%). […]
(§8) MS/MS. Natural logarithm of peak area ratios (compound peak area normalized by IS peak area) were plotted against time and half-life calculated. […]
(§9) placed into the sample chamber (indicated by the red ring) with 400 µL of PBS into the adjacent chamber.
(§10) The plate was sealed with a self-adhesive lid and incubated at 37 °C on an orbital shaker (1.5 g approx.) for 4 h. Aliquots (100 µL) were removed from each side of the insert, and analyzed after protein precipitation using 4 folds acetonitrile (ACN) containing berberine chloride as internal standard (IS) by LC-MS/MS (Analytical me thod seen below). The experimental procedure outlined in the Thermo Scientific RED device systems brochure was adopted in the present study . […]

[4] = Plasma binding by RED device; format: in vitro ADME, human; details: for plasma binding: human; for f u,plasma %: human plasma, RED device, 4 h, 37 °C; for all read-outs here: tested at 0.4 µM
Description: as §3, §4, §5, §6, §7, §8, §9, §10

[5] = 1 mg/kg, C57BL/6 mice 2 months, i.v. 1 mg/kg

COCCOCCn1c2ccccc2c2cc(/C=C/c3cc[n+](C)c4ccccc34)ccc21.[I-] [SLM, (E)-4-(2-(9-(2-(2-methoxyethoxy)ethyl)-9H-carbazol-3-yl)-vinyl)-1-methyl-quinolin-1-iumiodide]
Papp A→B at 1 μM (in vitro): 25 nm/s | efflux ratio at 1 μM (in vitro): 34 | Hepatocyte scaled Cl hep (mouse hepatocytes): 0.520 ± 0.100 L/h/kg | clearance ([1]; 0.2 mg/kg, i.v. 0.2 mg/kg): 0.89 L/h/kg | clearance ([1]; 0.6 mg/kg, i.v. 0.6 mg/kg): 0.93 L/h/kg | clearance [1, 5]: ~0.71 L/h/kg | clearance ([1]; 2 mg/kg, i.v. 2.0 mg/kg): 0.75 L/h/kg | clearance ([1]; 4 mg/kg, i.v. 4.0 mg/kg): 0.83 L/h/kg | AUC(0-inf) ([1]; i.v. 0.2 mg/kg): 0.24 ± 0.074 µg·h/mL | half-life ([1]; i.v. 0.2 mg/kg): 6.4 ± 4 h | MRT inf ([1]; i.v. 0.2 mg/kg): 3.5 ± 0.95 h | Vd ([1]; i.v. 0.2 mg/kg): 1.5 ± 0.63 L/kg | AUC(0-inf) ([1]; i.v. 0.6 mg/kg): 0.58 ± 0.17 µg·h/mL | half-life ([1]; i.v. 0.6 mg/kg): 6 ± 1.1 h | MRT inf ([1]; i.v. 0.6 mg/kg): 3.7 ± 0.86 h | Vd ([1]; i.v. 0.6 mg/kg): 2.1 ± 0.54 L/kg | half-life ([1]; i.v. 1.0 mg/kg): 9.3 ± 3.3 h | MRT inf ([1]; i.v. 1.0 mg/kg): 3.2 ± 1 h | Vd ([1]; i.v. 1.0 mg/kg): 2.2 ± 0.61 L/kg | half-life ([1]; i.v. 2.0 mg/kg): 7.1 ± 0.55 h | MRT inf ([1]; i.v. 2.0 mg/kg): 2.5 ± 0.18 h | Vd ([1]; i.v. 2.0 mg/kg): 1.7 ± 0.55 L/kg | half-life ([1]; i.v. 4.0 mg/kg): 6.5 ± 2 h | MRT inf ([1]; i.v. 4.0 mg/kg): 3 ± 0.52 h | Vd ([1]; i.v. 4.0 mg/kg): 2.1 ± 0.2 L/kg | CL renal ([1]; i.v. 1 mg/kg): 0.04 L/h/kg | Cl u, renal/GFR Ratio (C57BL/6 mice): 1.90 ± 0.390 | dose dependence of kinetics (C57BL/6 mice): linearity kinetics dependent on dose | biliary clearance share of plasma clearance (C57BL/6 mice): 38.0% | remaining / hepatic clearance share of plasma clearance (Clhep/Clp) (C57BL/6 mice): 58.0% | renal clearance share of plasma clearance (C57BL/6 mice): 4.50% | Liver first pass elimination (C57BL/6 mice): 16.0 % liver blood flow | Cl u, renal (C57BL/6 mice): 1.10 L/h per Kg and 1.10 ± 0.230 L/h per Kg | affinity for Aβ(1–40) (Aβ(1–40)): reasonably good affinity | reduction of Aβ fibrillogenesis in vitro (Aβ): reduce Aβ fibrillogenesis significantly | blood plasma ratio at 1 h, 1 μM ([2]; human): ~0.82 | blood plasma ratio at 1 h, 1 μM ([2]; mouse): ~1.4 | P-gp substrate identification (P-gp): substrates | plasma binding [3]: > 95% | f u,plasma % [3]: 1.70 ± 0.380^$ % | plasma binding [4]: > 95% | f u,plasma % [4]: 0.100 ± 0.0100%

COCCOCCn1c2ccccc2c2cc(/C=C/c3cc[n+](CCO)c4ccccc34)ccc21 [SLOH, (E)-1-(2-hydroxyethyl)-4-(2-(9-(2-(2-metho-xyethoxy)-ethyl)-9H-carbazol-3-yl)vinyl) quinolin-1-ium chloride]
Papp A→B at 1 μM (in vitro): 27 nm/s | efflux ratio at 1 μM (in vitro): 9 | Hepatocyte scaled Cl hep (mouse hepatocytes): 0.580 ± 0.100 L/h/kg | clearance ([1]; 0.2 mg/kg, i.v. 0.2 mg/kg): 0.93 L/h/kg | clearance ([1]; 0.6 mg/kg, i.v. 0.6 mg/kg): 0.77 L/h/kg | clearance [1, 5]: ~0.61 L/h/kg | clearance ([1]; 2 mg/kg, i.v. 2.0 mg/kg): 0.64 L/h/kg | clearance ([1]; 4 mg/kg, i.v. 4.0 mg/kg): 0.71 L/h/kg | AUC(0-inf) ([1]; i.v. 0.2 mg/kg): 0.22 ± 0.061 µg·h/mL | half-life ([1]; i.v. 0.2 mg/kg): 6.9 ± 3.7 h | MRT inf ([1]; i.v. 0.2 mg/kg): 2.7 ± 1.5 h | Vd ([1]; i.v. 0.2 mg/kg): 1 ± 0.33 L/kg | AUC(0-inf) ([1]; i.v. 0.6 mg/kg): 0.86 ± 0.31 µg·h/mL | half-life ([1]; i.v. 0.6 mg/kg): 5.5 ± 1.1 h | MRT inf ([1]; i.v. 0.6 mg/kg): 2.3 ± 0.78 h | Vd ([1]; i.v. 0.6 mg/kg): 1.2 ± 0.58 L/kg | half-life ([1]; i.v. 1.0 mg/kg): 5.8 ± 0.16 h | MRT inf ([1]; i.v. 1.0 mg/kg): 1.8 ± 0.1 h | Vd ([1]; i.v. 1.0 mg/kg): 0.83 ± 0.43 L/kg | half-life ([1]; i.v. 2.0 mg/kg): 4.6 ± 0.76 h | MRT inf ([1]; i.v. 2.0 mg/kg): 1.8 ± 0.17 h | Vd ([1]; i.v. 2.0 mg/kg): 1 ± 0.36 L/kg | half-life ([1]; i.v. 4.0 mg/kg): 5.8 ± 1.7 h | MRT inf ([1]; i.v. 4.0 mg/kg): 1.7 ± 0.08 h | Vd ([1]; i.v. 4.0 mg/kg): 1 ± 0.35 L/kg | CL renal ([1]; i.v. 1 mg/kg): 0.01 L/h/kg | Cl p (C57BL/6 mice; C57BL/6 mice 2 months, i.v. 1 mg/kg, 1 mg/kg): 0.610 ± 0.140 L/h per Kg | Cl u, renal/GFR Ratio (C57BL/6 mice): 0.260 ± 0.0400^$$ | dose dependence of kinetics (C57BL/6 mice): linearity kinetics dependent on dose | biliary clearance share of plasma clearance (C57BL/6 mice): 34.0% | remaining / hepatic clearance share of plasma clearance (Clhep/Clp) (C57BL/6 mice): 64.0% | renal clearance share of plasma clearance (C57BL/6 mice): 1.10% | Liver first pass elimination (C57BL/6 mice): 16.0 % liver blood flow | Cl u, renal (C57BL/6 mice): 0.160 L/h per Kg and 0.160 ± 0.0300^$$ L/h per Kg | affinity for Aβ(1–40) (Aβ(1–40)): reasonably good affinity | reduction of Aβ fibrillogenesis in vitro (Aβ): reduce Aβ fibrillogenesis significantly | blood plasma ratio at 1 h, 1 μM ([2]; human): ~0.76 | blood plasma ratio at 1 h, 1 μM ([2]; mouse): ~1.3 | P-gp substrate identification (P-gp): substrates | plasma binding [3]: > 95% | f u,plasma % [3]: 3.50 ± 0.700^$ % | plasma binding [4]: > 95% | f u,plasma % [4]: 0.170 ± 0.0400%
